Laboratory results taken from patent US5187165A, “Memory enhancing and analgesic 1,2,3a,8,8a-hexahydro-3a,8(and 1,3a,8)-di(and tri)methylpyrrolo[2,3-b]indoles” (priority 1988, dated 1993).
Structures can show the parent of a compound that is named as a salt.

Legend:
[1] = test system: scopolamine-induced memory deficit; assay: Dark Avoidance Assay (scopolamine induced memory deficit reversal); format: in vivo, mice; settings: Mus musculus, sc, 24 h, read-out: % of Animals with Scopolamine Induced Memory Deficit Reversal
Description: In this assay mice are tested for their ability to remember an unpleasant stimulus for a period of 24 hours. A mouse is placed in a chamber that contains a dark compartment; a strong incandescent light drives it to the dark compartment, where an electric shock is administered through metal plates on the floor. The animal is removed from the testing apparatus and tested again, 24 hours later, for the ability to remember the electric shock.
If scopolamine, an anticholinergic that is known to cause memory impairment, is administered before an animal's initial exposure to the test chamber, the animal re-enters the dark compartment shortly after being placed in the test chamber 24 hours later. This effect of scopolamine is blocked by an active test compound, resulting in a greater interval before re-entry into the dark compartment.
The results for an active compound are expressed as the percent of a group of animals in which the effect of scopolamine is blocked, as manifested by an increased interval between being placed in the test chamber and re-entering the dark compartment.

Acute toxicity (LD50) = format: in vivo; settings: in vivo, ip, death within 24 hours
Description: LD50 is determined by the dose (mg/kg) at which 50% of the test animals die within 24 hours. In many cases this dose is an approximation.

norepinephrine uptake = format: biochemical; settings: rat brain synaptosomes, 50 nM 3H-NE, 37° C., 5 min; read-out: Reuptake Inhibition of neurotransmitters, Norepinephrine
yohimbine toxicity = assay: animal or person; format: in vivo, mice; settings: 30 mg/kg s.c., alone (4 out of 400 mice)
Description: The potentiation of yohimbine toxicity is considered an additional test for screening antidepressant drugs. The method used in this invention is as follows:
Male mice weighing 20 to 30 grams are used. They are housed under standard laboratory conditions with free access to food and water. Compounds are dissolved in distilled water and a suitable surfactant is added in case of poor solubility. Yohimbine hydrochloride is dissolved in distilled water as well. Both compound and yohimbine are administered in a volume of […].
Compounds and vehicle are administered orally 60 minutes prior to a sublethal dose (30 mg/kg s.c.) of yohimbine hydrochloride which alone causes death in about […] of mice (4 out of 400). Ten mice per group are then placed in plastic cages (26×10×16 cm) with food and water available ad libitum. Mortality rate is assessed 18 hours postdosing. ED50 is defined as dose of drug causing death in 5/10 mice and is calculated by probit analysis.

| Structure (SMILES) | responders at 0.31 mg/kg [1] | LD50 at 24 h (Acute toxicity (LD50)) | IC50 (norepinephrine uptake) | death in mice of yohimbine hydrochloride alone (yohimbine toxicity) |
| --- | --- | --- | --- | --- |
| CN1CC[C@@]2(C)c3cc(OC(=O)Nc4ccncc4)ccc3N(C)[C@@H]12 [(3aS-cis)-1,2,3,3a,8,8a-Hexahydro-1,3a,8-trimethylpyrrolo[2,3-b]indol-5-ol,4-pyridinyl carbamate ester] | 27% | ~40 mg/kg | > 20 µM | – |
| COC(=O)[C@@H]1[C@H]2C[C@H]3c4[nH]c5ccccc5c4CCN3C[C@@H]2CC[C@@H]1O [yohimbine hydrochloride, reference compound] | – | – | – | about 1% |
